Measurements: PMC10308680 (Journal of Biomedical Science, 2023)
Where “and” joins values, the source holds several entries; their conditions need not be identical. Equal entries are not always repeated.

Key:
B7-2/CD28 = format: cell-based, human
[1] = test system: CD28/B7-2 (cell-surface B7-2); format: cell-based, human

ASMDYPVL [p2TAsc]
Per cent doubly labeled cells (B7-2/CD28) (B7-2/CD28): 8.4% and 9.0% and 8.6%
attenuation of intercellular B7-2/CD28 engagement (in words) (B7-2/CD28): fails to attenuate intercellular B7-2/CD28 engagement
inhibition of binding of soluble CD28 to cell-surface B7-2 [1]: abrogated the ability of p2TA to inhibit binding of CD28 to cell-surface B7-2
